Data published in patent US6562820B2, “Method for treatment and prevention of mastitis” (Pharmacia & Upjohn Company, priority 2000, dated 2003).

What was measured:
Format in all cases: in vivo
[1] = test system: cow in dry period with moderate mastitis; experiment: Treatment of mastitis in a dry-period cow by intramammary infusion; conditions: 3-lactation cow in dry period, 300 mg once per day for 5 days, solution
Experimental: A 3-lactation cow in dry period with moderate mastitis is administered 300 mg of the oxazolidinone in EXAMPLE 1, once per day for 5 days. The oxazolidinone is formulated as a solution and administered by intramammary infusion.

[2] = test system: cow in lactation with moderate mastitis; experiment: Treatment of mastitis in a lactating cow with oxazolidinone plus bovine lactoferrin by intramammary infusion; conditions: 3-lactation cow in lactation, 300 mg in combination with 3 g bovine lactoferrin once per day for 5 consecutive days, composite suspension
Experimental: A 3-lactation cow in lactation with moderate mastitis is administered 300 mg of the oxazolidinone in EXAMPLE 2 in combination with administration of 3 g of bovine lactoferrin, once per day for 5 consecutive days. The oxazolidinone and the lactoferrin are prepared in a composite suspension formulation and administered by intramammary infusion.

cow without mastitis = experiment: Prevention of mastitis in a cow at the start of dry off period by intramammary infusion; conditions: 2-lactation cow without mastitis, single dose of 250 mg at start of dry off period, solution, mastitis occurs in untreated dry cows of same herd
Experimental: A 2-lactation cow without mastitis is administered a single dose of 250 mg of the oxazolidinone in EXAMPLE 2 at the start of dry off period. The oxazolidinone is formulated as a solution and administered by intramammary infusion. Although mastitis occurs in other dry cows that are in the same herd but are not treated with the oxazolidinones, the cow treated is not infected.

In the case of `CC(=O)NC[C@H]1CN(c2ccc(N3CCOCC3)c(F)c2)C(=O)O1` [EXAMPLE 1, (S)-N-[[3-[3-fluoro-4-(4-morpholinyl)phenyl]-2-oxo-5-oxazolidinyl]methyl]acetamide], the “mastitis status at the end of the treatment” value [1] is reported as “the mastitis is gone”.

In the case of `CC(=O)NC[C@H]1CN(c2ccc(N3CCSCC3)c(F)c2)C(=O)O1` [EXAMPLE 2, N-[[(5S)-3-[3-fluoro-4-(4-thiomorpholinyl)phenyl]-2-oxo-1,3-oxazolidin-5-yl]methyl]acetamide], the “mastitis status at the end of the treatment” value [2] is reported as “the mastitis is gone” and the “occurrence of mastitis infection in treated cow” value (cow without mastitis) is reported as “not infected”.
